# Patent publication US6258845A (priority 1999, dated 2001)
# “And” between values parts separate entries of the source, which are not always exact repeats. Equal entries are not always repeated. “Also recorded” adds a separate entry of the source.
# Experiments:
# [1] = in vivo; cited from earlier work
# [2] = tested on: colon cancer incidence; details: cited from earlier work
# [3] = tested on: colon mucosal prostaglandins; details: cited from earlier work
# [4] = tested on: AOM-treated rat model of colon carcinogenesis; details: in vivo; cited from earlier work
# [5] = tested on: COX (cyclooxygenase); details: cited from earlier work
# [6] = tested on: carcinogenesis in rodent/animal models; details: in vivo; cited from earlier work
# [7] = tested on: prostaglandin E2 (PGE2) levels in flat mucosa; experiment: Ibuprofen one month trial, PGE2 levels in flat mucosa; details: 300 mg/day
# [8] = tested on: tumors harboring Ki-ras mutations in AOM-treated rats; details: cited from earlier work
# [9] = cited from earlier work
# [10] = tested on: Caco-2 and clone 60 cells; experiment: Clonogenic assay (colony-forming efficiency), Caco-2 and clone 60 cells; format: cell-based, human
# [11] = tested on: Ki-ras transfected Caco-2 cells; experiment: Induction of apoptosis in Ki-ras transfected versus parental Caco-2 cells; format: cell-based, human; details: 120 μM sulfide, 600 μM sulfone
# Procedure: (§1) FIG. 3. […] Apoptosis was determined by light microscopy.
# [12] = tested on: Ki-ras clone #60; experiment: Induction of apoptosis (light microscopy) in Ki-ras clone 60; format: cell-based, human; details: 120 μM sulindac sulfide
# Procedure: as §1
# (§2) FIG. 8. […] Cells were grown over a period of 6 days. Cells were harvested at various days (0, 2, 4 and 6 days), spun onto slides and stained. Apoptosis was determined by light microscopy. Percentage of apoptotic cells was calculated as the number of apoptotic cells out of the total cells counted times 100. At least 500 cells were counted for each sample.
# (§3) Cells were grown over a period of 6 days. Cells were harvested at various days (0, 2, 4 and 6 days), spun onto slides and stained. Apoptosis was determined by light microscopy. Percentage of apoptotic cells was calculated as the number of apoptotic cells out of the total cells counted times 100.
# [13] = tested on: rat enterocytes; details: cited from earlier work
# [14] = tested on: Caco-2 parental cells; experiment: Induction of apoptosis (light microscopy) in Caco-2 parental cells; format: cell-based, human; details: 120 μM sulindac sulfide; Caco-2 parental
# Procedure: as §1, §2, §3
# [15] = human, in vivo, po; cited from earlier work
# [16] = tested on: Ki-ras clone #66; experiment: Induction of apoptosis (light microscopy) in Ki-ras clone 66; details: 120 μM sulindac sulfide; printed 'clone 6'
# [17] = tested on: Caco-2 parental cells, Ki-ras clone #60 and Ki-ras clone #66; experiment: Viable cell number (trypan blue dye exclusion), growth of Caco-2 parental and Ki-ras transfected cells; format: cell-based, human
structure (smiles),measurement,setting,value
CC1(C)S[C@@H]2[C@H](NC(=O)[C@H](N)c3ccc(O)cc3)C(=O)N2[C@H]1C(=O)O [amoxicillin],adverse effects,[1],diarrhea and super-infections
CC(=O)Oc1ccccc1C(=O)O [aspirin],"beneficial effect, three large cohort studies",[2]; in vivo,conflicting reports on the beneficial effect
same,weekly total dose with evident effect on colon cancer incidence,[2]; weekly total dose,≥ 1000 mg
same,lowest dose decreasing PGF2α in colon mucosa,[3]; in vivo,40 mg
same,threshold dose of effect on colon mucosa,[3]; in vivo,81 mg and 80 mg
same,effect on colon mucosal prostaglandins,"[3]; low doses, another group of investigators",no such effect on colon mucosal prostaglandins
same,upper gastrointestinal mucosa prostaglandins,[3]; low doses,substantial reduction of prostaglandins; also recorded: substantial education of prostaglandins
same,inhibition of colon carcinogenesis in AOM-treated rat model,[4],effectively inhibit colon carcinogenesis
same,COX / prostaglandin synthesis inhibition,[5],inhibitor of cyclooxygenase
CC[C@H]1OC(=O)[C@H](C)[C@@H](O[C@H]2C[C@@](C)(OC)[C@@H](O)[C@H](C)O2)[C@H](C)[C@@H](O[C@@H]2O[C@H](C)C[C@H](N(C)C)[C@H]2O)[C@](C)(OC)C[C@@H](C)C(=O)[C@H](C)[C@@H](O)[C@]1(C)O [clarithromycin],diarrhea,[1],10%
same,pseudomembranous colitis,[1],1%
CC(C)Cc1ccc(C(C)C(=O)O)cc1 (centres unmarked) [ibuprofen],chemoprevention / inhibition of tumor development in animal models,[6],less effective than other NSAIDs
same,inhibition of colon carcinogenesis in AOM-treated rat model,[4],effectively inhibit colon carcinogenesis
same,PGE2 levels in flat mucosa,[7],significant decrease
COc1ccc2c(c1)c(CC(=O)O)c(C)n2C(=O)c1ccc(Cl)cc1 [indomethacin],inhibition of colon carcinogenesis in AOM-treated rat model,[4],effectively inhibit colon carcinogenesis
same,COX / prostaglandin synthesis inhibition,[5],prostaglandin synthase inhibitor
Cc1c(OCC(F)(F)F)ccnc1C[S+]([O-])c1nc2ccccc2[nH]1 (centres unmarked) [lansoprazole],diarrhea,[1],8%
same,headache,[1],5%
same,nausea,[1],3%
Cc1ncc([N+](=O)[O-])n1CCO [metronidazole],disulfiram-like reaction with alcohol ingestion,[1],20%
same,rash,[1],5%
COc1ccc2[nH]c([S+]([O-])Cc3ncc(C)c(OC)c3C)nc2c1 (centres unmarked) [omeprazole],dizziness,[1],2%
"CN1C(C(=O)Nc2ccccn2)=C(O)c2ccccc2S1(=O)=O [piroxicam, 4-Hydroxy-2-methyl-N-2-pyridyl-2H1,2-benzothiazine-3-carboxamide 1,1-dioxide]",chemoprevention / inhibition of tumor development in animal models,[6],the most effective chemoprevention agent in animal models
same,inhibition of colon carcinogenesis in AOM-treated rat model,[4],effectively inhibit colon carcinogenesis
same,Ki-ras mutation / tumors harboring an activated Ki-ras,[8],reduced Ki-ras mutation frequencies
same,amount of biochemically active p21 ras in existing tumors,[8],reduced the amount of biochemically active p21 ras in existing tumors
same,tumors harboring Ki-ras mutations,[8]; reduced from 90%,25%
same,side effects,[9]; IIb trial / meta-analysis,has more side effects than other NSAIDs
same,half-life,"[9]; human, in vivo",long half-life
same,most frequently reported side effects,"[9]; human, in vivo",Gastrointestinal complaints
CSc1ccc(/C=C2/C(C)=C(CC(=O)O)c3cc(F)ccc32)cc1 [sulindac sulfide],survival normalized to like DFMO-treated controls,"[10]; 5 mM DFMO, increasing concentrations of sulindac sulfide",the survival rates of the DFMO-treated cells mirrored those of the non-DFMO-treated cells
same,IC50,"[10]; Homo sapiens, Caco-2, 24 h, read-out: 50% decrease in cell number",~225 µM
same,effect of Ki-ras activation on viability / colony-forming efficiency after sulindac metabolite,"[10]; increasing concentrations, 24 h",did not reveal any differences in colony-forming efficiency between Ki-ras transfectants and parental Caco-2 cells
same,onset of apoptosis in Ki-ras transfected cells compared with parental cells,[11],accelerate the onset of apoptosis; also recorded: occurred several days earlier in Ki-ras transfected cells than in parental cells
same,time of peak apoptosis,[12],4 days
same,resistance to apoptosis on Ki-ras activation,[13],confers resistance to apoptosis
same,time of peak apoptosis,[14],8 days
same,mean half-life,[15],16.4 h
same,time of peak apoptosis,[16],6 days
same,Ki-ras selective toxicity / Ki-ras-specific effect on growth,[17]; 120 μM sulindac sulfide or 600 μM sulindac sulfone,nor did sulindac sulfide or sulfone exert a Ki-ras-specific effect on growth
same,number of viable cells,"[17]; 120 μM sulindac sulfide, 10-day growth",remained relatively unchanged throughout the 10-day growth period
